Laboratory results: US9137998B2, “Pesticidal compositions and related methods” (DOW AGROSCIENCES LLC, priority 2013, dated 2015)

What was measured:
[1] = test system: Green Peach Aphid (Myzus persicae) (GPA) (MYZUPE); experiment: Bioassay for Green Peach Aphid (GPA), foliar spray on cabbage seedlings; type: in vivo; settings: Myzus persicae, 72 h, 200 ppm foliar spray, graded after three days, Abbott corrected % control, read-out: % Control (or Mortality) rating, GPA
Protocol: Cabbage seedlings grown in 3-inch pots, with 2-3 small (3-5 cm) true leaves, were used as test substrate. The seedlings were infested with 20-50 GPA (wingless adult and nymph stages) one day prior to chemical application. Four pots with individual seedlings were used for each treatment. Test compounds (2 mg) were dissolved in 2 mL of acetone/methanol (1:1) solvent, forming stock solutions of 1000 ppm test compound. The stock solutions were diluted 5× with 0.025% Tween 20 in H2O to obtain the solution at 200 ppm test compound. A hand-held aspirator-type sprayer was used for spraying a solution to both sides of […] leaves until runoff. Reference plants (solvent check) were sprayed with the diluent only containing 20% by volume of acetone/methanol (1:1) solvent. Treated plants were held in a holding room for three days at approximately 25° C. and ambient relative humidity (RH) prior to grading. Evaluation was conducted by counting the number of live aphids per plant under a microscope. Percent control was measured by using Abbott's correction formula (W. S. Abbott, “A Method of Computing the Effectiveness of an Insecticide” J. Econ. Entomol. 18 (1925), pp. 265-267) as follows. Corrected % Control=100*(X−Y)/X
X=No. of live aphids on solvent check plants and
Y=No. of live aphids on treated plants
Biological Data for Green Peach Aphid (GPA) (MYZUPE) and Sweetpotato Whitefly-crawler (WF) (BEMITA)” (See Table Section).

[2] = test system: Sweetpotato Whitefly-Crawler (Bemisia tabaci) (WF) (BEMITA); experiment: Insecticidal test for Sweetpotato Whitefly-crawler (WF) in foliar spray assay on cotton plants; type: in vivo; settings: Bemisia tabaci, 216 h, 200 ppm foliar spray, graded after 9 days, Abbott corrected % control, read-out: % Control (or Mortality) rating, WF
Protocol: Cotton plants (Gossypium hirsutum) grown in 3-inch pots, with 1 small (4-5 cm) true leaves, were used as test substrate. The plants were infested with 200-400 whitefly eggs 4-5 days prior to chemical application. Four pots with individual plants were used for each treatment. Test compounds (2 mg) were dissolved in 1 mL of acetone solvent, forming stock solutions of 2000 ppm test compound. The stock solutions were diluted 10× with 0.025% Tween 20 in H2O (diluents) to obtain the solution at 200 ppm test compound. A hand-held aspirator-type sprayer was used for spraying a solution to both sides of cotton leaves until runoff. Reference plants (solvent check) were sprayed with the diluent only containing 10% by volume of acetone solvent. Treated plants were held in a holding room for 9 days at approximately 25° C. and ambient relative humidity (RH) prior to grading. Evaluation was conducted by counting the number of live 3-4 nymph stage per plant under a microscope. Percent control was measured by using Abbott's correction formula (W. S. Abbott, “A Method of Computing the Effectiveness of an Insecticide” J. Econ. Entomol. 18 (1925), pp. 265-26′7) as follows. Corrected % Control=100*(X−Y)/X
X=No. of live nymphs on solvent check plants and
Y=No. of live nymphs on treated plants. […]

In the case of `C#CCN(C(=O)OC(C)(C)C)c1sc(Br)nc1C` [CA4, tert-Butyl (2-bromo-4-methylthiazol-5-yl)(prop-2-yn-1-yl)carbamate], the melting point is reported as 82 to 86 °C.
Work on `C#CCN(C(=O)OC(C)(C)C)c1sc(-c2cncnc2)nc1Cl` [CA10, tert-Butyl (4-chloro-2-(pyrimidin-5-yl)thiazol-5-yl)(prop-2-yn-1-yl) carbamate] yielded a melting point of 80 to 83 °C.
For `C#CCN(C(=O)CCSCCC(F)(F)F)c1sc(-c2cncc(F)c2)nc1C` [Compound P19, N-(2-(5-Fluoropyridin-3-yl)-4-methylthiazol-5-yl)-N-(prop-2-yn-1-yl)-3-((3,3,3-trifluoropropyl)thio)propanamide], the mortality at 200 ppm [1] was 80 to 100% and the mortality at 200 ppm [2] was 80 to 100%.
With `C#CCN(C(=O)CCSCC1CC1(F)F)c1sc(-c2cncc(F)c2)nc1C` (centres unmarked) [Compound P22, 3-(((2,2-Difluorocyclopropyl)methyl)thio)-N-(2-(5-fluoropyridin-3-yl)-4-methylthiazol-5-yl)-N-(prop-2-yn-1-yl)propanamide] the mortality at 200 ppm [1] was 80 to 100% and the mortality at 200 ppm [2] was 80 to 100%.
`C#CC(C)N(C(=O)CCSCC1CC1(F)F)c1sc(-c2cccnc2)nc1C` (centres unmarked) [Compound P31, N-(But-3-yn-2-yl)-3-(((2,2-difluorocyclopropyl)methyl)thio)-N-(4-methyl-2-(pyridin-3-yl)thiazol-5-yl)propanamide] gave a mortality at 200 ppm [1] of 80 to 100% and a mortality at 200 ppm [2] of 80 to 100%.
For `C#CC(C)N(C(=O)CCSCCC(F)(F)F)c1sc(-c2cccnc2)nc1C` (centres unmarked) [Compound P32, N-(But-3-yn-2-yl)-N-(4-methyl-2-(pyridin-3-yl)thiazol-5-yl)-3-((3,3,3-trifluoropropyl)thio) propanamide], the mortality at 200 ppm [1] was 80 to 100% and the mortality at 200 ppm [2] was 80 to 100%.
For `C#CCN(C(=O)CCSCCC(F)(F)F)c1sc(-c2cccnc2)nc1Cl` [FA1, N-(4-Chloro-2-(pyridin-3-yl)thiazol-5-yl)-N-(prop-2-yn-1-yl)-3-((3,3,3-trifluoropropyl)thio) propanamide], the mortality at 200 ppm [1] was 80 to 100% and the mortality at 200 ppm [2] was 80 to 100%.
With `C#CCN(C(=O)CCSCCC(F)(F)F)c1sc(-c2cncc(F)c2)nc1Cl` [FA2, N-(4-Chloro-2-(5-fluoropyridin-3-yl)thiazol-5-yl)-N-(prop-2-yn-1-yl)-3-((3,3,3-trifluoropropyl)thio)propanamide] the mortality at 200 ppm [1] was 80 to 100% and the mortality at 200 ppm [2] was 80 to 100%.
`C#CCN(C(=O)CCSCCC(F)(F)F)c1sc(-c2cncnc2)nc1Cl` [FA3, N-(4-chloro-2-(pyrimidin-5-yl)thiazol-5-yl)-N-(prop-2-yn-1-yl)-3-((3,3,3-trifluoropropyl)thio)propanamide] gave a mortality at 200 ppm [1] of 80 to 100% and a mortality at 200 ppm [2] of 80 to 100%.
`C#CCN(C(=O)CCSC)c1sc(-c2cncc(F)c2)nc1C` [FA4, N-(2-(5-Fluoropyridin-3-yl)-4-methylthiazol-5-yl)-3-(methylthio)-N-(prop-2-yn-1-yl)propanamide] gave a mortality at 200 ppm [1] of 80 to 100% and a mortality at 200 ppm [2] of 80 to 100%.
Compound `C#CCN(C(=O)C(C)CSC)c1sc(-c2cncc(F)c2)nc1C` (centres unmarked) [FA5, N-(2-(5-Fluoropyridin-3-yl)-4-methylthiazol-5-yl)-2-methyl-3-(methylthio)-N-(prop-2-yn-1-yl) propanamide] has a mortality at 200 ppm [1] of 80 to 100% and a mortality at 200 ppm [2] of 80 to 100%.
Compound `C#CCN(C(=O)CC[S+]([O-])CCC(F)(F)F)c1sc(-c2cccnc2)nc1Cl` (centres unmarked) [FA6, N-(4-chloro-2-(pyridin-3-yl)thiazol-5-yl)-N-(prop-2-yn-1-yl)-3-((3,3,3trifluoropropyl)sulfinyl)propanamide] has a mortality at 200 ppm [1] of 80 to 100% and a mortality at 200 ppm [2] of 80 to 100%.
Work on `C#CCN(C(=O)CC[S+]([O-])CCC(F)(F)F)c1sc(-c2cncc(F)c2)nc1Cl` (centres unmarked) [FA7, N-(4-Chloro-2-(5-fluoropyridin-3-yl)thiazol-5-yl)-N-(prop-2-yn-1-yl)-3-((3,3,3-trifluoropropyl)sulfinyl)propanamide] yielded a mortality at 200 ppm [1] of 80 to 100% and a mortality at 200 ppm [2] of 80 to 100%.
For `C#CCN(C(=O)CC[S+]([O-])CCC(F)(F)F)c1sc(-c2cncnc2)nc1Cl` (centres unmarked) [FA8, N-(4-Chloro-2-(pyrimidin-5-yl)thiazol-5-yl)-N-(prop-2-yn-1-yl)-3-((3,3,3-trifluoropropyl)sulfinyl)propanamide], the mortality at 200 ppm [1] was 80 to 100% and the mortality at 200 ppm [2] was 80 to 100%.
For `C#CCN(C(=O)CC[S+]([O-])CC1CC1(F)F)c1sc(-c2cccnc2)nc1C` (centres unmarked) [FA9, 3-(((2,2-Difluorocyclopropyl)methyl)sulfinyl)-N-(4-methyl-2-(pyridin-3-yl)thiazol-5-yl)-N-(prop-2-yn-1-yl)propanamide], the mortality at 200 ppm [1] was 80 to 100% and the mortality at 200 ppm [2] was 80 to 100%.
For `C#CCN(C(=O)CCS(=O)(=O)CCC(F)(F)F)c1sc(-c2cccnc2)nc1Cl` [FA10, N-(4-chloro-2-(pyridin-3-yl)thiazol-5-yl)-N-(prop-2-yn-1-yl)-3-((3,3,3-trifluoropropyl)sulfonyl)propanamide], the mortality at 200 ppm [1] was 80 to 100% and the mortality at 200 ppm [2] was 80 to 100%.
For `C#CCN(C(=O)CCS(=O)(=O)CCC(F)(F)F)c1sc(-c2cncc(F)c2)nc1Cl` [FA11, N-(4-Chloro-2-(5-fluoropyridin-3-yl)thiazol-5-yl)-N-(prop-2-yn-1-yl)-3-((3,3,3-trifluoropropyl)sulfonyl)propanamide], the mortality at 200 ppm [1] was 80 to 100% and the mortality at 200 ppm [2] was 80 to 100%.
Compound `C#CCN(C(=O)CCS(=O)(=O)CCC(F)(F)F)c1sc(-c2cncnc2)nc1Cl` [FA12, N-(4-Chloro-2-(pyrimidin-5-yl)thiazol-5-yl)-N-(prop-2-yn-1-yl)-3-((3,3,3-trifluoropropyl)sulfonyl) propanamide] has a mortality at 200 ppm [1] of 80 to 100% and a mortality at 200 ppm [2] of 80 to 100%.
Compound `C#CCN(C(=O)CCS(=O)(=O)CC1CC1(F)F)c1sc(-c2cccnc2)nc1C` (centres unmarked) [FA13, 3-(((2,2-Difluorocyclopropyl)methyl)sulfonyl)-N-(4-methyl-2-(pyridin-3-yl)thiazol-5-yl)-N-(prop-2-yn-1-yl)propanamide] has a mortality at 200 ppm [1] of 80 to 100% and a mortality at 200 ppm [2] of 80 to 100%.
Work on `CC#CCN(C(=O)CCSCC1CC1(F)F)c1sc(-c2cccnc2)nc1C` (centres unmarked) [FA14, N-(But-2-yn-1-yl)-3-(((2,2-difluorocyclopropyl)methyl)thio)-N-(4-methyl-2-(pyridin-3-yl)thiazol-5-yl)propanamide] yielded a mortality at 200 ppm [1] of 80 to 100% and a mortality at 200 ppm [2] of 80 to 100%.
